Data published in publication PMC7697888, “Comprehensive Set of Tertiary Complex Structures and Palmitic Acid Binding Provide Molecular Insights into Ligand Design for RXR Isoforms” (International Journal of Molecular Sciences, 2020).
Where two headings read alike, the source gives them in different places.

Target: T1, RXRα LBD (Homo sapiens, UniProt P19793)
T1 construct: peptide to the RXRα LBD (aa 225–462) was studied
T1 sequence (P19793 225-462): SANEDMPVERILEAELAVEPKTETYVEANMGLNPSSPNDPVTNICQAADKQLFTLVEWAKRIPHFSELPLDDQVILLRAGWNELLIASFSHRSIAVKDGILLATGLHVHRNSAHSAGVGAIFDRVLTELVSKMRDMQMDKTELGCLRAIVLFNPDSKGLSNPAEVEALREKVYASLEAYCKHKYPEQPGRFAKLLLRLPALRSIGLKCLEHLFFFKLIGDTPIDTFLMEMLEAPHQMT
Assay: HTRF-based SRC-1 co-activator recruitment assay
Format: biochemical
Details: for EC50: HTRF; for competition with bexarotene in SRC-1 recruitment: titrated in the presence of 0.3 µM bexarotene
Description: To examine whether PA can act as a modulator that activates RXRs in solution, we next performed homogenous time-resolved fluorescence resonance energy transfer (HTRF)-based co-regulator recruitment assays using a peptide derived from steroid receptor co-activator 1 (SRC-1) as established previously. In addition to PA, we also tested the RXR modulator potentials of myristic acid (MA; C14:0; C14H28O2; […]) and stearic acid (SA; C18:0; C18H36O2; […]).
Terbium cryptate as streptavidin conjugate (Cisbio Bioassays, Codolet, France) was used as the fluorescence resonance energy transfer (FRET) donor and stably coupled via an N-terminal biotin to the SRC-1-derived peptide (biotin-[…]) (Eurogentec Deutschland GmbH, Cologne, Germany), which contains the co-activator consensus motif, LxxLL. Recombinant RXRα LBD fused to N-terminal superfolder green fluorescent protein (sGFP) served as the FRET acceptor. Coactivator recruitment by the RXRα LBD brings FRET donor and acceptor into close proximity, resulting in a gain in the FRET signal as indicator for binding. […] Fluorescence intensities (FI) at 520 nm (acceptor) and 620 nm (donor reference) after excitation at 340 nm were recorded on a Tecan Spark luminometer equipped with enhanced fluorescence module (Tecan) after 2 h of incubation at room temperature. To obtain dimensionless HTRF, FI520 nm was divided by FI620 nm and multiplied with 10,000. The recruitment of the SRC-1-derived peptide to the RXRα LBD was validated with increasing concentrations of SR11237.

[1] = cell-free, compound alone, read-out: EC50 SRC-1 recruitment to RXRα
[2] = in the presence of 0.3 µM bexarotene, read-out: EC50 SRC-1 recruitment to RXRα in the presence of 0.3 µM bexarotene

| Compound | EC50 (EC50 SRC-1 recruitment to RXRα in the presence of 0.3 µM bexarotene, in the presence of 0.3 µM bexarotene) [µM] | EC50 [1] [µM] | competition with bexarotene in SRC-1 recruitment | EC50 [2] [µM] |
| --- | --- | --- | --- | --- |
| CCCCCCCCCCCCCC(=O)O [MA, myristic acid] | 2.9 | 3.2 | no competition | – |
| CCCCCCCCCCCCCCCC(=O)O [PA, palmitic acid] | – | 6.6 | no competition | 3.1 |
| CCCCCCCCCCCCCCCCCC(=O)O [SA, stearic acid] | – | 19 | no competition | 14 |
